Active and inactive are the calls of the source. The calls are words filed in the database; no cut-off is given here.
Tests used:
NCI/ADR-RES [1] = experiment: Induction of apoptosis in human NCI-ADR-RES cells assessed as late apoptotic cells at 8 uM incubated for 24 hrs by Annexin V-FITC and DAPI staining based flow cytometry (Rvb= 0.66 %); type: functional
NCI/ADR-RES [2] = experiment: Induction of apoptosis in human NCI-ADR-RES cells assessed as necrotic cells at 8 uM incubated for 24 hrs by Annexin V-FITC and DAPI staining based flow cytometry (Rvb= 0.55 %); type: functional
NCI-ADR-RES [3] = experiment: Activation of PI3K/AKT signaling pathway in human NCI-ADR-RES cells assessed as increase in PI3K phosphorylation at 3 uM incubated for 24 to 48 hrs by Western blot analysis; type: cell-based; settings: filed as activator, time 24-48 hrs
NCI/ADR-RES [4] = experiment: Induction of apoptosis in human NCI-ADR-RES cells assessed as viable cells at 8 uM incubated for 48 hrs by Annexin V-FITC and DAPI staining based flow cytometry (Rvb= 97.9 %); type: functional; settings: read-out: Activity
NCI/ADR-RES [5] = experiment: Induction of apoptosis in human NCI-ADR-RES cells assessed as viable cells at 8 uM incubated for 24 hrs by Annexin V-FITC and DAPI staining based flow cytometry (Rvb= 97.9 %); type: functional; settings: read-out: Activity
NCI/ADR-RES [6] = experiment: Induction of apoptosis in human NCI-ADR-RES cells assessed as early apoptotic cells at 8 uM incubated for 48 hrs by Annexin V-FITC and DAPI staining based flow cytometry (Rvb= 0.89 %); type: functional
NCI/ADR-RES [7] = experiment: Antiproliferative activity against human multidrug resistant NCI-ADR-RES cells overexpressing P-gp assessed as reduction in cell viability incubated for 48 hrs by MTT assay; type: functional, cell-based
NCI/ADR-RES [8] = experiment: Induction of apoptosis in human NCI-ADR-RES cells assessed as late apoptotic cells at 8 uM incubated for 48 hrs by Annexin V-FITC and DAPI staining based flow cytometry (Rvb= 0.66 %); type: functional
NCI-ADR-RES [9] = experiment: Activation of PI3K/AKT signaling pathway in human NCI-ADR-RES cells assessed as increase in AKT phosphorylation at 3 uM incubated for 24 to 48 hrs by Western blot analysis; type: cell-based; settings: filed as activator, time 24-48 hrs
NCI/ADR-RES [10] = experiment: Induction of apoptosis in human NCI-ADR-RES cells assessed as early apoptotic cells at 8 uM incubated for 24 hrs by Annexin V-FITC and DAPI staining based flow cytometry (Rvb= 0.89 %); type: functional
NCI/ADR-RES [11] = experiment: Induction of apoptosis in human NCI-ADR-RES cells assessed as necrotic cells at 8 uM incubated for 48 hrs by Annexin V-FITC and DAPI staining based flow cytometry (Rvb= 0.55 %); type: functional

SMILES: COc1cccc2c1C(=O)c1c(O)c3c(c(O)c1C2=O)C[C@@](O)(C(=O)CO)C[C@@H]3O[C@H]1C[C@H](N)[C@H](O)[C@H](C)O1 [DOXORUBICIN]
- Activity (NCI/ADR-RES [1]): 0.74%
- Activity (NCI/ADR-RES [2]): 0.39%
- Activity (NCI-ADR-RES [3]): Active
- viability at 8 µM (NCI/ADR-RES [4]): 92.8%
- viability at 8 µM (NCI/ADR-RES [5]): 98.3%
- Activity (NCI/ADR-RES [6]): 1.78%
- IC50 (NCI/ADR-RES [7]): 58.5 µM
- Activity (NCI/ADR-RES [8]): 4.03%
- Activity (NCI-ADR-RES [9]): Active
- Activity (NCI/ADR-RES [10]): 0.64%
- Activity (NCI/ADR-RES [11]): 1.47%
